From ChEMBL document CHEMBL4507296 (2021)

What was measured:
[1] = biological target: Muscarinic acetylcholine receptor M5 (Homo sapiens) (UniProt P08912); details: Compound concentration 10.0 uM
[2] = species: Rattus norvegicus; details: Compound concentration 10.0 uM
[3] = biological target: 5-hydroxytryptamine receptor 1A (Homo sapiens) (UniProt P08908); details: Compound concentration 10.0 uM
[4] = biological target: Sodium-dependent noradrenaline transporter (Homo sapiens) (UniProt P23975); details: Compound concentration 10.0 uM
[5] = biological target: Alpha-1D adrenergic receptor (Homo sapiens) (UniProt P25100); details: Compound concentration 10.0 uM
[6] = biological target: Muscarinic acetylcholine receptor M2 (Homo sapiens) (UniProt P08172); details: Compound concentration 10.0 uM
Muscarinic acetylcholine receptor M2 (Homo sapiens), sequence (P08172 whole entry): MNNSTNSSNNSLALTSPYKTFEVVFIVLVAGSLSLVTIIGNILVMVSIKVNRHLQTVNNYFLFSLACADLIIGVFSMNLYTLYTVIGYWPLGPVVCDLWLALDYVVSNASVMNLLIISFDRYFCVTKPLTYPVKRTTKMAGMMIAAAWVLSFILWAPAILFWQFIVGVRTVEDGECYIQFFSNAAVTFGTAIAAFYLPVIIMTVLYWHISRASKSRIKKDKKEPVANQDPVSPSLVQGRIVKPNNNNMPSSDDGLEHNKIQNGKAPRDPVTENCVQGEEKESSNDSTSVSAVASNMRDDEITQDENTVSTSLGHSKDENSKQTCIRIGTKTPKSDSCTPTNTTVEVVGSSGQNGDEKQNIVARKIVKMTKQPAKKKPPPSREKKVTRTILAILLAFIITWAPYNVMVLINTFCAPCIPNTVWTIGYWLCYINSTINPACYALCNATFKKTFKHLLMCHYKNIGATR

[7] = biological target: Delta-type opioid receptor (Homo sapiens) (UniProt P41143); details: Compound concentration 10.0 uM
Delta-type opioid receptor (Homo sapiens), sequence (P41143 whole entry): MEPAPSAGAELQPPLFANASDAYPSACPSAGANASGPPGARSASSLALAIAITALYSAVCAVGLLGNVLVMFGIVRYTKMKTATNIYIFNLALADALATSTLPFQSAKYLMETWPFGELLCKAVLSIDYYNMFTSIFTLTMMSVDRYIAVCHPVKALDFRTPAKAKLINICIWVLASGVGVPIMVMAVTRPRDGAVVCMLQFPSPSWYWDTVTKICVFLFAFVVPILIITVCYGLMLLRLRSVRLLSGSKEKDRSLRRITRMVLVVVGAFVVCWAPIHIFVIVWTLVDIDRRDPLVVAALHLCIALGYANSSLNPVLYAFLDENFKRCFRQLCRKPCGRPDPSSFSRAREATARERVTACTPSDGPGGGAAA

[8] = biological target: T1, Alpha-2B adrenergic receptor (Homo sapiens) (UniProt P18089); details: Compound concentration 10.0 uM
T1 sequence (whole entry): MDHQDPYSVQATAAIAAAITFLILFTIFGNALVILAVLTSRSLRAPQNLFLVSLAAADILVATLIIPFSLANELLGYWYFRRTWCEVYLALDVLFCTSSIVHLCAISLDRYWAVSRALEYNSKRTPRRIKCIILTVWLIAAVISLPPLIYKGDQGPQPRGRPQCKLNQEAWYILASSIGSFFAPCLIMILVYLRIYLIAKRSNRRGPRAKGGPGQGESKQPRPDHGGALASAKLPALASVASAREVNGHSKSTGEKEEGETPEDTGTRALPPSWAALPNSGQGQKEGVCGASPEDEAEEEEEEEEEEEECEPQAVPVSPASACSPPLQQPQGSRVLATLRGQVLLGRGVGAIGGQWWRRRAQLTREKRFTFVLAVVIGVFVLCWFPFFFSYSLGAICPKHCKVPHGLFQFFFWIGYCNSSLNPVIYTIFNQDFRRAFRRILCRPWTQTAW

[9] = biological target: Histamine H4 receptor (Homo sapiens) (UniProt Q9H3N8); details: Compound concentration 10.0 uM
Histamine H4 receptor (Homo sapiens), sequence (Q9H3N8 whole entry): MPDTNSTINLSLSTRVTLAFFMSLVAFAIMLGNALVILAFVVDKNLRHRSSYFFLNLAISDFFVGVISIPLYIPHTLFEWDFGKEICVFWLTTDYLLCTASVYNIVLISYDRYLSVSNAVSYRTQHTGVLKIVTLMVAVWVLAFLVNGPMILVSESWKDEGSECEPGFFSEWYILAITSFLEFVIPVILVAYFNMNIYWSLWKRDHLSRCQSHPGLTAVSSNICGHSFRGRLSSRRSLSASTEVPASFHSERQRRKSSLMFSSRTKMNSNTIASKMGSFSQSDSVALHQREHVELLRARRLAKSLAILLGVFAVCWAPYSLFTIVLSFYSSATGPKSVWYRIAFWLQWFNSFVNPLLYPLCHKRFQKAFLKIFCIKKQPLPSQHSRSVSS

[10] = biological target: D(2) dopamine receptor (Homo sapiens) (UniProt P14416); details: Compound concentration 10.0 uM
D(2) dopamine receptor (Homo sapiens), sequence (P14416 whole entry): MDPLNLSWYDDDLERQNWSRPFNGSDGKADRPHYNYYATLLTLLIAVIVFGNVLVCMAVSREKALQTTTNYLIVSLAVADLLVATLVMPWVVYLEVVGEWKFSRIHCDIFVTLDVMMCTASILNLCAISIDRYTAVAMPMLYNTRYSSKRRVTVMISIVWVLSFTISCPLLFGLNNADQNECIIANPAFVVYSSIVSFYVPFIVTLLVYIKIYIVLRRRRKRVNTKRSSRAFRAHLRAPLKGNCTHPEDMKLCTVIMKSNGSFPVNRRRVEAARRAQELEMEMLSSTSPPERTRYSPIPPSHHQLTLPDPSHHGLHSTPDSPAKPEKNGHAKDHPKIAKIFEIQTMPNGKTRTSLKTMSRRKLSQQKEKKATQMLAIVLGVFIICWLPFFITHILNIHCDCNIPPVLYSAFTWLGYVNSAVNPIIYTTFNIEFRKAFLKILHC

[11] = biological target: Beta-1 adrenergic receptor (Homo sapiens) (UniProt P08588); details: Compound concentration 10.0 uM
[12] = biological target: 5-hydroxytryptamine receptor 6 (Homo sapiens) (UniProt P50406); details: Compound concentration 10.0 uM
[13] = biological target: Beta-3 adrenergic receptor (Homo sapiens) (UniProt P13945); details: Compound concentration 10.0 uM
Beta-3 adrenergic receptor (Homo sapiens), sequence (P13945 whole entry, looked up): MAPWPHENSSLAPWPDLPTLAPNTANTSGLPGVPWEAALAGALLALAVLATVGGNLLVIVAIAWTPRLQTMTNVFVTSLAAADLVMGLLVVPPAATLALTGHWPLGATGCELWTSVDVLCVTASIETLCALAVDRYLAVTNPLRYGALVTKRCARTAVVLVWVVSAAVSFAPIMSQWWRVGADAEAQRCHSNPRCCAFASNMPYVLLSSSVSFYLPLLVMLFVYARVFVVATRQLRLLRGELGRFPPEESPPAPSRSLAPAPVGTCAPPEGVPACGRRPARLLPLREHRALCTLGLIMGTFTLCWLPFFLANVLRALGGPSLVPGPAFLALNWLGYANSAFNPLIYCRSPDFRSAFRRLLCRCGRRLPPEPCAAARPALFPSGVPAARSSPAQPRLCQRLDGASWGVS

[14] = biological target: Alpha-1B adrenergic receptor (Homo sapiens) (UniProt P35368); details: Compound concentration 10.0 uM
[15] = biological target: Muscarinic acetylcholine receptor M3 (Homo sapiens) (UniProt P20309); details: Compound concentration 10.0 uM
[16] = biological target: 5-hydroxytryptamine receptor 7 (Homo sapiens) (UniProt P34969); details: Compound concentration 10.0 uM
5-hydroxytryptamine receptor 7 (Homo sapiens), sequence (P34969 whole entry): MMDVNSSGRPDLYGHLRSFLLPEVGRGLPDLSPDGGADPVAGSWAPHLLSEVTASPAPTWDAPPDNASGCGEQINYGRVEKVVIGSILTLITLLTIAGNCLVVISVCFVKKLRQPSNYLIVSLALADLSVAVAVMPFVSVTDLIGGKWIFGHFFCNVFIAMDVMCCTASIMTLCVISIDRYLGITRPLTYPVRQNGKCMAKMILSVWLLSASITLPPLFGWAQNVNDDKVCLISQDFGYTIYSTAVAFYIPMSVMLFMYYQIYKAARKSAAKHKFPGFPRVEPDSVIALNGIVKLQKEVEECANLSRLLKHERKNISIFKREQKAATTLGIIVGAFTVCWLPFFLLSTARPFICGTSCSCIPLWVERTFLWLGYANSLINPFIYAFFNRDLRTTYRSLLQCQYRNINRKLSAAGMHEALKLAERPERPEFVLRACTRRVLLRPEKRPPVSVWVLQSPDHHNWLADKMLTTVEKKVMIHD

[17] = biological target: 5-hydroxytryptamine receptor 3A (Homo sapiens) (UniProt P46098); details: Compound concentration 10.0 uM
[18] = biological target: Beta-2 adrenergic receptor (Homo sapiens) (UniProt P07550); details: Compound concentration 10.0 uM
[19] = biological target: D(4) dopamine receptor (Homo sapiens) (UniProt P21917); details: Compound concentration 10.0 uM
[20] = biological target: T2, GABA-A receptor; anion channel (Rattus norvegicus) (UniProt O09028+P15431+P18506+P18508+P19969+P20236+P23574+P23576+P28471+P28473+P30191+P62813+P63079+P63138+Q91ZM7+Q9ES14); details: Compound concentration 10.0 uM
[21] = biological target: 5-hydroxytryptamine receptor 1B (Homo sapiens) (UniProt P28222); details: Compound concentration 10.0 uM
5-hydroxytryptamine receptor 1B (Homo sapiens), sequence (P28222 whole entry): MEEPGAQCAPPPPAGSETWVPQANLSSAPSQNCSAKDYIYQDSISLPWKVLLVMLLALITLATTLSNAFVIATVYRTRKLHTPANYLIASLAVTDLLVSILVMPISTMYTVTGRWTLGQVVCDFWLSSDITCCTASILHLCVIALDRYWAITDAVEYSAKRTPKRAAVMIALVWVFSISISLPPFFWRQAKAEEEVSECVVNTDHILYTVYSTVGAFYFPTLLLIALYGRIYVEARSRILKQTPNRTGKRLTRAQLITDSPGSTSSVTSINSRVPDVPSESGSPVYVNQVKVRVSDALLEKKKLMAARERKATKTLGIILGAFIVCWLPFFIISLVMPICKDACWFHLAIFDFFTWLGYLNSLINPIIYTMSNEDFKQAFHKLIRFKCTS

[22] = biological target: 5-hydroxytryptamine receptor 2B (Homo sapiens) (UniProt P41595); details: Compound concentration 10.0 uM
5-hydroxytryptamine receptor 2B (Homo sapiens), sequence (P41595 whole entry): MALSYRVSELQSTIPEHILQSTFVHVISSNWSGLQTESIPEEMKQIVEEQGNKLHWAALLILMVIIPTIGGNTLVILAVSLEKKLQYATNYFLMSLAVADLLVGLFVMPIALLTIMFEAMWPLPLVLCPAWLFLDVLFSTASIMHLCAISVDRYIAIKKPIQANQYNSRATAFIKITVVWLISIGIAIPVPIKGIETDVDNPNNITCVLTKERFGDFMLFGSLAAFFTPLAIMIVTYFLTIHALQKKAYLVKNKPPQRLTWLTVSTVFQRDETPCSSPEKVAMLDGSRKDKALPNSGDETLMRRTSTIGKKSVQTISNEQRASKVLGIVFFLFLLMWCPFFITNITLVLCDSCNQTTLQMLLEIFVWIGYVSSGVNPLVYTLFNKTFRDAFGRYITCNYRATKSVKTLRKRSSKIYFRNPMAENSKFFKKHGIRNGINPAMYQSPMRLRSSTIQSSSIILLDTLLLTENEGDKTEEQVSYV

[23] = biological target: D(1B) dopamine receptor (Homo sapiens) (UniProt P21918); details: Compound concentration 10.0 uM
[24] = biological target: Alpha-2C adrenergic receptor (Homo sapiens) (UniProt P18825); details: Compound concentration 10.0 uM
[25] = biological target: Muscarinic acetylcholine receptor M1 (Homo sapiens) (UniProt P11229); details: Compound concentration 10.0 uM
[26] = biological target: T2, GABA-A receptor; anion channel (Rattus norvegicus); details: Compound concentration 10.0 uM; remark: listed apart in the source
[27] = biological target: 5-hydroxytryptamine receptor 2C (Homo sapiens) (UniProt P28335); details: Compound concentration 10.0 uM
[28] = biological target: Transient receptor potential cation channel subfamily M member 8 (Homo sapiens, UniProt Q7Z2W7); test: Assay (coming soon)
[29] = biological target: Alpha-1A adrenergic receptor (Homo sapiens) (UniProt P35348); details: Compound concentration 10.0 uM
[30] = biological target: Kappa-type opioid receptor (Homo sapiens) (UniProt P41145); details: Compound concentration 10.0 uM
[31] = biological target: Sodium-dependent serotonin transporter (Homo sapiens) (UniProt P31645); details: Compound concentration 10.0 uM
[32] = biological target: 5-hydroxytryptamine receptor 5A (Homo sapiens) (UniProt P47898); details: Compound concentration 10.0 uM
[33] = biological target: 5-hydroxytryptamine receptor 2A (Homo sapiens) (UniProt P28223); details: Compound concentration 10.0 uM
[34] = biological target: Muscarinic acetylcholine receptor M4 (Homo sapiens) (UniProt P08173); details: Compound concentration 10.0 uM
[35] = biological target: Mu-type opioid receptor (Homo sapiens) (UniProt P35372); details: Compound concentration 10.0 uM
Mu-type opioid receptor (Homo sapiens), sequence (P35372 whole entry): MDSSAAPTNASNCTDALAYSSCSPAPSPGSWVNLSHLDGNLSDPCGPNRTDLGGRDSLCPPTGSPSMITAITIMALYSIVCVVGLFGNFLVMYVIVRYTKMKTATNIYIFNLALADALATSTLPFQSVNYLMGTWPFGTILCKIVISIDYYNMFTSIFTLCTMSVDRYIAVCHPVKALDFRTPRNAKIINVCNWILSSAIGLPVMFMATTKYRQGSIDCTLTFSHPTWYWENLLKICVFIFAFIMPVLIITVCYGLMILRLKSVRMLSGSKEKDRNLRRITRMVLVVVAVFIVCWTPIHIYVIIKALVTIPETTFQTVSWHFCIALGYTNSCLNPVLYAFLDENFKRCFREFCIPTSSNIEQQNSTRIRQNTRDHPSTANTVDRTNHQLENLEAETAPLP

[36] = biological target: Histamine H3 receptor (Homo sapiens) (UniProt Q9Y5N1); details: Compound concentration 10.0 uM
[37] = biological target: Histamine H1 receptor (Homo sapiens) (UniProt P35367); details: Compound concentration 10.0 uM

Muscarinic acetylcholine receptor M5 (Homo sapiens), sequence (P08912 whole entry): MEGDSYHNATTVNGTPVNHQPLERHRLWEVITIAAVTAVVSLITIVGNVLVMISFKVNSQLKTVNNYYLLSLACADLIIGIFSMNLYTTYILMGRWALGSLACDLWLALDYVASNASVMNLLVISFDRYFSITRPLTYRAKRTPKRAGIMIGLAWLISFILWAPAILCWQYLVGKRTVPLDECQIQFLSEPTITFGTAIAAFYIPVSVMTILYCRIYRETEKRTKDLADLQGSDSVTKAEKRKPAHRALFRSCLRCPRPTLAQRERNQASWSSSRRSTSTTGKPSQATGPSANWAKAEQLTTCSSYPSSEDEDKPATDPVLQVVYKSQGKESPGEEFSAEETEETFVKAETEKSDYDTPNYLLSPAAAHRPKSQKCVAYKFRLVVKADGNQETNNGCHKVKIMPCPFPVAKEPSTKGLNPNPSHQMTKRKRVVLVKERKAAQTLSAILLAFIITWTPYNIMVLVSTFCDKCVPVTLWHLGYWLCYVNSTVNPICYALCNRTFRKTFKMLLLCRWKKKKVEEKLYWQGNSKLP
5-hydroxytryptamine receptor 1A (Homo sapiens), sequence (P08908 whole entry): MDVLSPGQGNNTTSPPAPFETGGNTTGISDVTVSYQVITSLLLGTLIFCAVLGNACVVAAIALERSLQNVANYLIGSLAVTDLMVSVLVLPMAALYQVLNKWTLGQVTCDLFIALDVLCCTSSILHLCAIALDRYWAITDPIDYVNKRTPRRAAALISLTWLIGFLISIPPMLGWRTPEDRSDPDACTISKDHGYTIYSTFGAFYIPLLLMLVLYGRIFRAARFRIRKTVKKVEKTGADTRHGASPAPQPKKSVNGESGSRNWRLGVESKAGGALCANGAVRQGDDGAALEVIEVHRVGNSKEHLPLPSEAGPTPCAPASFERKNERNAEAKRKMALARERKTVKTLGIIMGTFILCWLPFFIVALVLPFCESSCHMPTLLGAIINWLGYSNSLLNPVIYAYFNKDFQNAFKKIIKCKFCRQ

In the case of `C[C@H](c1ccc(F)cc1)N(Cc1ccc(Cl)c(C(=O)O)c1)C(=O)c1cnc2ccccc2c1` [PF-05257137], the inhibition [1] is reported as -1.1%, the inhibition [2] is reported as -9.88% and the inhibition [3] is reported as -3.79%. It also gave an inhibition [4] of -9.65%, an inhibition [5] of 10.1% and an inhibition [6] of 1.24%. It also gave an inhibition [7] of 12.4%, an inhibition [8] of 17.7% and an inhibition [9] of 3.41%. For the same compound, the inhibition [10] was -0.95%, the inhibition [11] was -0.35% and the inhibition [12] was 11.3%. The inhibition [13] was -5.1%, the inhibition [14] was -1.36% and the inhibition [15] was 39%. It also gave an inhibition [16] of 13.8%, an inhibition [17] of 14.3% and an inhibition [18] of 24.1%. It also gave an inhibition [19] of 14.9%, an inhibition [20] of 28.3% and an inhibition [21] of -7.94%. For the same compound, the inhibition [22] was 21.8%, the inhibition [23] was 12.8% and the inhibition [24] was 14.2%. For the same compound, the inhibition [25] was 14.5%, the inhibition [26] was -0.14% and the inhibition [27] was -7.78%. The IC50 [28] was > 10 µM (not active), the inhibition [29] was 11.5% and the inhibition [30] was -0.42%. For the same compound, the inhibition [31] was -2.63%, the inhibition [32] was 1.77% and the inhibition [33] was -2.34%. It also gave an inhibition [34] of 4.42%, an inhibition [35] of 0.07% and an inhibition [36] of -8.13%. It also gave an inhibition [37] of -3.13%.
